Assay results as given in US20240398783A1, “Compounds and Pharmaceutical Compositions Comprising Inhibitors of Amyloid Peptide Interactions with Glycosaminoglycans, Methods of Treatment and Use Thereof” (Gismo Therapeutics, Inc., priority 2021, published 2024).
Where a name gives a salt, the structure may show the parent alone. Read-outs that look alike come from different tables or passages of the source.

What was measured:
[1] = biological target: Alpha-Synuclein Protofibril binding to heparin (HS-GAG) (Homo sapiens, UniProt P37840); test: Inhibition of alpha-synuclein protofibril binding to immobilized heparin-BSA (ELISA); set-up: species or system porcine; conditions: for inhibition at 30 µM: read-out: Alpha-Synuclein/Heparin Activity (% inhibition class)
Description: (§1) Porcine intestinal mucosa heparin conjugated to Bovine Serum Albumin (Heparin-BSA) was prepared as described (Najjam, S. et al. 1997, Cytokine 12, 1013-1022). Heparin is a sulfated HS-GAG and is commonly used as a HS-GAG in biochemical and binding assays (Lindahl, U. and Kjellen, L. (2013) ibid). Heparin-BSA at 0.01 mg/ml in Phosphate Buffered Saline (PBS; pH 7.4) was added to a 96 well polystyrene ELISA plate (NUNC Cat. No. 449824; 100 μl per well) and incubated Over Night (ON) at 4 degrees Celsius. For negative controls, ELISA plates were coated with BSA instead of Heparin-BSA, using the same procedure. Following the incubation, the plate was washed consecutively, by immersion, with de-ionized water and PBS (pH 7.4). The ELISA plate was then blocked with nonfat milk (2%, 200 μl per well) for 2 hours at Room Temperature (RT) with gentle shaking. Following blocking, the plate was washed with de-ionized water then PBS (pH 7.4). GBAPs were dissolved and diluted in PBS (pH 6.5, supplemented with 0.1% BSA) at desired concentrations, added to the ELISA plates containing immobilized Heparin-BSA (100 μl per well) and incubated for 2 hours at RT with gentle shaking. Following incubation, the plate was washed with de-ionized water and three times with PBS (pH 6.5) plus Tween. Bound GBAP was detected by a monoclonal antibody specific for that GBAP, followed by incubation with secondary antibody conjugated to horseradish peroxidase (HRP). Antibody was diluted in PBS (pH 6.5 supplemented with 1% BSA). Following each incubation with antibody, the plate was washed with de-ionized water and three times with PBS (pH 6.5) wash buffer containing 0.1% Tween. The peroxidase substrate chromogen, TMB (Dako Cat. No. S1599) was added (100 μl per well) to the ELISA plate and incubated at room temperature. After 5 minutes ELISA Stop Solution (hydrochloric acid 1N, sulfuric acid 3N) was added (100 μl per well) to stop the peroxidase catalyzed colorimetric reaction. The Optical Density of the samples was measured at 450 nm using an ELISA plate reader (BioTek Synergy H1). Following color development, the % inhibition compared to control (BSA-coated plates) was determined. IC-50s were calculated using GraphPad Prism software.
The assay was performed as described in Example 43, with the following modifications. Following to coating the plates with Heparin-BSA, plates were washed as described. The compounds were dissolved in DMSO at 10 mM final concentration and further diluted prior to assay. DMSO concentration in the screening well was up to […]. Individual compounds were co-incubated with alpha-synuclein on plates containing immobilized heparin. Alpha-synuclein purchased from rPeptide (Cat. No. S1001) was used to prepare protofibrils as described in Ihse et al., 2017. Alpha-synuclein was dissolved in PBS (pH7.4) to a concentration of 140 μM (˜2 mg/ml), and incubated for 7 days at 37° C. with rotary agitation (400 rpm). Resulting fibrils were sonicated for 10 minutes in ultrasonic water bath, quickly frozen and kept in aliquots at −80 degrees Celsius. Protofibrillar alpha-synuclein diluted in PBS (pH 6.5, supplemented with BSA, 0.1%) was added to the ELISA plate (100 μl per well) and incubated for 2 hours at RT with gentle shaking. Following the incubation, the plate was washed with de-ionized water and three times with PBS (pH 6.5) plus Tween. Bound Alpha-synuclein was detected by Anti-Alpha-synuclein Monoclonal Antibody 211 (Santa Cruz Cat. No. sc-12767), followed by secondary anti-IgG antibody conjugated to HRP (R&D System, Cat. No. HAF007). Following to color development with TMB, as described in Example 43, the Optical Density of the samples was measured at 450 nm using an ELISA plate reader. Following color development, the % inhibition compared to control (no compound, DMSO control) for every compound was determined.
An example of inhibition curve is shown in FIG. 1 for Inhibitor Compounds 22 and 24. […]

[2] = biological target: TDP-43 binding to heparin (HS-GAG) (Homo sapiens, UniProt Q13148); test: Inhibition of TDP-43 binding to immobilized heparin-BSA (ELISA); set-up: species or system porcine; conditions: for inhibition at 30 µM: read-out: TDP43/Heparin Activity (% inhibition class); for IC50: TDP-43, heparin-BSA
Description: as §1
The assay was performed as described in Example 43, with the following modifications.
Following to coating the plates with Heparin-BSA, plates were washed as described. The compounds were dissolved in DMSO at 10 mM final concentration and further diluted prior to assay. DMSO concentration in the screening well was up to 2%. Individual compounds were co-incubated with TDP-43 on plates containing immobilized heparin. TDP43 from R&D System (Cat. No. AP-190) was quickly frozen and kept in aliquots at −80 degrees Celsius. TDP-43 dissolved in PBS (pH 6.5, supplemented with BSA, 0.1%) was added to the ELISA plate (100 μl per well) and incubated for 2 hours at RT with gentle shaking. Following the incubation, the plate was washed with de-ionized water and three times with PBS (pH 6.5) plus Tween. Bound TDP-43 was detected by Anti-TDP43 Monoclonal Antibody (R&D System Cat. No. MAB7778), followed by secondary anti-IgG antibody conjugated to HRP (R&D System, Cat. No. HAF007). Following to color development with TMB, as described in Example 43, the Optical Density of the samples was measured at 450 nm using an ELISA plate reader. Following color development, the % inhibition compared to control (no compound, DMSO control) for every compound was determined.
As described in Example 43, Heparin in the form of Heparin-BSA conjugate is used as a source of HS-GAG. For each compound IC-50 value in TDP-43—heparin-BSA binding assay is shown in μM (micromolar). In some cases IC-50 was not measured and % inhibition at 30 μM compound concentration is shown instead. […] All assays were done on 96-well plates in duplicates and experiments were repeated at least twice. […]

[3] = Alpha-Synuclein/Heparin Activity (IC-50), alpha-synuclein protofibrils, heparin-BSA
[4] = alpha-synuclein protofibrils, heparin-BSA, read-out: Alpha-Synuclein/Heparin Activity (IC-50)
[5] = read-out: TDP43/Heparin Activity (IC-50)
[6] = 30 μM compound, alpha-synuclein protofibrils, heparin-BSA

Sequence of TDP-43 binding to heparin (HS-GAG) (Q13148 whole entry): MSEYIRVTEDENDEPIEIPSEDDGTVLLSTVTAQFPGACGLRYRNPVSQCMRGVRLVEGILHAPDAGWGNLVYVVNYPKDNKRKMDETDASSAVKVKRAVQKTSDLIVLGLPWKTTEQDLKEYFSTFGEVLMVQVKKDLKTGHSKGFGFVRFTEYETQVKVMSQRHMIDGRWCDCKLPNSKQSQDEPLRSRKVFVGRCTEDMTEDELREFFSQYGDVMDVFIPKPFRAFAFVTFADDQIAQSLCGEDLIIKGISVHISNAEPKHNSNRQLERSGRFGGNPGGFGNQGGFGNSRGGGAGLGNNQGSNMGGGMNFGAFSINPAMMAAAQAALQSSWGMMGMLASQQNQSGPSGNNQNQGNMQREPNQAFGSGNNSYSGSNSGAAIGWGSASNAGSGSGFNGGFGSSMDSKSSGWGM

Row | SMILES | inhibition at 30 µM [1] [%] | inhibition at 30 µM [2] [%] | IC50 [1, 3] [µM] | IC50 ([2]; TDP43/Heparin Activity (IC-50)) [µM] | also measured
1 | COc1cc(Nc2cncc3cc(Cl)ccc23)cnc1-n1cnc(C)c1C [Compound 33, 7-chloro-N-(6-(4,5-dimethyl-1H-imidazol-1-yl)-5-methoxypyridin-3-yl)isoquinolin-4-amine phosphoric acid salt] | < 30 | < 30 | – | – | –
2 | CCN1CCN(c2ccc(Nc3ccnc4cc5ccccc5cc34)cc2)CC1 [Compound 39, N-(4-(4-ethylpiperazin-1-yl)phenyl)benzo[g]quinolin-4-amine] | – | > 30 | 3.39 | – | –
3 | COc1cc2nccc(NN=Cc3ccc(-n4ccnc4)c(C)c3)c2cc1OC [Compound 11, 4-(2-(4-(1H-imidazol-1-yl)-3-methylbenzylidene)hydrazineyl)-6,7-dimethoxyquinoline hydrochloride] | < 30 | < 30 | – | – | –
4 | COc1cc(Nc2nncc3cc(Cl)ccc23)cnc1-n1cnc(C)c1C [Compound 31, 6-chloro-N-(6-(4,5-dimethyl-1H-imidazol-1-yl)-5-methoxypyridin-3-yl)phthalazin-1-amine phosphoric acid salt] | < 30 | < 30 | – | – | –
5 | Clc1ccc2c(Nc3ccc(-n4ccnc4)nc3)ncnc2c1 [Compound 41, N-(6-(1H-imidazol-1-yl)pyridin-3-yl)-7-chloroquinazolin-4-amine] | – | – | – | – | IC50 [1, 4]: 12.8 µM; IC50 [2, 5]: 4.25 µM
6 | CCN(CC)Cc1cccc(Nc2ccnc3cc(Cl)ccc23)c1 [Compound 42, 7-chloro-N-(3-((diethylamino)methyl)phenyl)quinolin-4-amine] | – | < 30 | – | – | inhibition at 30 µM [1, 6]: < 30%
7 | CC(=NNc1ncnc2cc(Cl)ccc12)c1ccnc(-n2cnc(C)c2C)c1 [Compound 28, 7-chloro-4-(2-(1-(2-(4,5-dimethyl-1H-imidazol-1-yl)pyridin-4-yl)ethylidene)hydrazineyl)quinazoline] | – | – | – | – | IC50 [1, 4]: 3.23 µM; IC50 [2, 5]: 5.73 µM
8 | Clc1ccc2c(Nc3ccc(-n4cncn4)nc3)ncnc2c1 [Compound 34, N-(6-(1H-1,2,4-triazol-1-yl)pyridin-3-yl)-7-chloroquinazolin-4-amine phosphoric acid salt] | – | – | 5.06 | 5.23 | –
9 | CN1CCN(Cc2ccc(/C=N/Nc3ccnc4cc(Cl)ccc34)cc2)CC1 [Compound 7, (E)-7-chloro-4-(2-(4-((4-methylpiperazin-1-yl)methyl)benzylidene)hydrazinyl)quinolone] | – | < 30 | 1.41 | – | –
10 | Cc1ncn(-c2ccc(/C=N/Nc3ccnc4cc(Cl)ccc34)cc2)c1C [Compound 2, (E)-7-chloro-4-((E)-(4-(4,5-dimethyl-1H-imidazol-1-yl)benzylidene)hydrazono)-1,4-dihydroquinoline] | < 30 | – | – | 61.7 | –
11 | CC(=NNc1ccnc2cc(Cl)ccc12)c1ccc(-n2cnc(C)c2C)nc1 [Compound 22, 7-chloro-4-(2-(1-(6-(4,5-dimethyl-1H-imidazol-1-yl)pyridin-3-yl)ethylidene)hydrazineyl)quinoline] | – | – | 2.87 | 9.02 | –
12 | O=S1(=O)CCN(Cc2ccc(/C=N/Nc3ccnc4cc(F)ccc34)cc2)CC1 [Compound 10, (E)-4-(4-((2-(7-fluoroquinolin-4-yl)hydrazono)methyl)benzyl)thiomorpholine 1,1-dioxide] | – | > 30 | – | – | inhibition at 30 µM [1, 6]: < 30%
13 | COc1cc2nccc(N/N=C/c3ccc(-n4ccnc4)c(OC)c3)c2cc1OC [Compound 13, (E)-4-(2-(4-(1H-imidazol-1-yl)-3-methoxybenzylidene)hydrazineyl)-6,7-dimethoxyquinoline phosphate] | – | < 30 | 35.2 | – | –
14 | C/C(=N\Nc1ncnc2cc(Cl)ccc12)c1ccc(-n2cncn2)nc1 [Compound 32, (E)-4-(2-(1-(6-(1H-1,2,4-triazol-1-yl)pyridin-3-yl)ethylidene)hydrazineyl)-7-chloroquinazoline] | > 30 | < 30 | – | – | –
15 | C/C(=N\Nc1ncnc2cc(Cl)ccc12)c1cccc(CN(C)C)c1 [Compound 29, 1-(3-(1-(2-(7-chloroquinazolin-4-yl)hydrazineylidene)ethyl)phenyl)—N,N-dimethylmethanamine] | > 30 | < 30 | – | – | –
16 | CN1CCN(c2cc(Nc3ccnc4cc(Cl)ccc34)ccn2)CC1 [Compound 20, 7-chloro-N-(2-(4-methylpiperazin-1-yl)pyridin-4-yl)quinolin-4-amine] | < 30 | < 30 | – | – | –
17 | C/C(=N\Nc1ncnc2cc(F)ccc12)c1ccc(-n2cc[n+](C)c2)nc1 [Compound 26, (E)-1-(5-(1-(2-(7-fluoroquinazolin-4-yl)hydrazineylidene)ethyl)pyridin-2-yl)-3-methyl-1H-imidazol-3-ium phosphoric acid salt] | > 30 | – | – | 32.8 | –
18 | Clc1ccc2c(N/N=C/c3ccc(-n4cccn4)cc3)ccnc2c1 [Compound 3, (E)-4-((E)-(4-(1H-pyrazol-1-yl)benzylidene)hydrazono)-7-chloro-1,4-dihydroquinoline] | – | – | 1.7 | 8.1 | –
19 | CN(C)Cc1cc(Nc2ccnc3cc(Cl)ccc23)ccn1 [Compound 45, 7-chloro-N-(2-((dimethylamino)methyl)pyridin-4-yl)quinolin-4-amine] | – | < 30 | – | – | inhibition at 30 µM [1, 6]: < 30%
20 | C/C(=N\Nc1ncnc2cc(Cl)ccc12)c1ccc(-n2cnc(C)c2C)nc1 [Compound 16, 7-chloro-4-(2-(1-(6-(4,5-dimethyl-1H-imidazol-1-yl)pyridin-3-yl)ethylidene)hydrazineyl)quinazoline phosphate] | – | – | 3.21 | 2.16 | –
21 | Fc1cc(/C=N/Nc2ccnc3cc(Cl)ccc23)ccc1-n1ccnc1 [Compound 35, (E)-7-chloro-4-(2-(3-fluoro-4-(1H-imidazol-1-yl)benzylidene)hydrazineyl)quinoline hydrochloride] | < 30 | – | – | 15.6 | –
